Source: the supplement of paper PMC10307832

These cell lines were tested with C=CCn1c(=O)c2cnc(Nc3ccc(N4CCN(C)CC4)cc3)nc2n1-c1cccc(C(C)(C)O)n1 [Adavosertib] + COc1cccc2cc(-c3nc([C@H]4CC[C@H](C(=O)O)CC4)n4ncnc(N)c34)[nH]c12 [OSI-027] (partner 0.5 µM) (assay: relative viability (nuclei count vs DMSO), 5 days (fraction); higher = more cells survive). Conditions: first compound 0.01 µM.
Procedure, shortened: (§1)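 Relative viability divides the nuclei count in treated wells by that in vehicle wells. Lung cancer cell lines were seeded in 1536-well plates, dosed by pin tool the next day, and fixed and stained after 5 days in one step with final 0.05% Triton X-100, 1% formaldehyde and 1 ug/ml Hoechst. Dosing was a single drug or a fixed anchor-drug dose plus five library-drug doses (not always all listed) in √10 steps, and values are medians of duplicate plates imaged at 4×.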
SK-MES-1 was tested, and the relative viability was 0.681.
SW 1573 was tested, and the relative viability was 0.645.
UMC-11 gave a relative viability of 0.48.

Same assay, conditions: first compound 0.03162 µM
SK-MES-1 gave a relative viability of 0.576.
SW 900 gave a relative viability of 0.554.
Cell Line SW 1573 has a relative viability of 0.626.
In the case of UMC-11, the relative viability is reported as 0.442.

Same assay, conditions: first compound 0.1 µM
With SK-MES-1 the relative viability was 0.428.
SW 900 was tested, and the relative viability was 0.494.
Work on SW 1573 yielded a relative viability of 0.882.
UMC-11 gave a relative viability of 0.432.

Same assay, conditions: first compound 0.3162 µM
Cell Line SK-MES-1 has a relative viability of 0.198.
SW 900 showed a relative viability of 0.436.
Work on SW 1573 yielded a relative viability of 0.278.
Work on UMC-11 yielded a relative viability of 0.444.

Each cell line was assayed with C=CCn1c(=O)c2cnc(Nc3ccc(N4CCN(C)CC4)cc3)nc2n1-c1cccc(C(C)(C)O)n1 [Adavosertib] + N=C(N)NC(=N)NCCc1ccccc1 [Phenformin] (partner 250 µM) in the same assay as above. Conditions: first compound 0.01 µM.
Procedure, shortened: as §1
In the case of SK-MES-1, the relative viability is reported as 0.66.
Cell Line SW 1573 has a relative viability of 0.384.
Cell Line UMC-11 has a relative viability of 0.341.

Same assay, conditions: first compound 0.03162 µM
With SK-MES-1 the relative viability was 0.704.
With SW 900 the relative viability was 0.75.
In the case of SW 1573, the relative viability is reported as 0.564.
For UMC-11, the relative viability was 0.315.

Same assay, conditions: first compound 0.1 µM
SK-MES-1 showed a relative viability of 0.635.
For SW 900, the relative viability was 0.564.
SW 1573 was tested, and the relative viability was 0.408.
Cell Line UMC-11 has a relative viability of 0.318.

Same assay, conditions: first compound 0.3162 µM
Work on SK-MES-1 yielded a relative viability of 0.208.
Cell Line SW 900 has a relative viability of 0.387.
For SW 1573, the relative viability was 0.324.
Work on UMC-11 yielded a relative viability of 0.29.

What follows are cell lines tested with C=CCn1c(=O)c2cnc(Nc3ccc(N4CCN(C)CC4)cc3)nc2n1-c1cccc(C(C)(C)O)n1 [Adavosertib] + CC(=O)c1c(C)c2cnc(Nc3ccc(N4CCNCC4)cn3)nc2n(C2CCCC2)c1=O [Palbociclib] (partner 0.5 µM) in the same assay as above. Conditions: first compound 0.01 µM.
Procedure, shortened: as §1
In the case of SK-MES-1, the relative viability is reported as 0.343.
With SW 900 the relative viability was 0.403.
SW 1573 showed a relative viability of 0.364.
For UMC-11, the relative viability was 0.326.

Same assay, conditions: first compound 0.03162 µM
SK-MES-1 was tested, and the relative viability was 0.337.
SW 900 showed a relative viability of 0.633.
SW 1573 showed a relative viability of 0.42.
UMC-11 showed a relative viability of 0.339.

Same assay, conditions: first compound 0.1 µM
SK-MES-1 showed a relative viability of 0.305.
SW 900 gave a relative viability of 0.567.
Cell Line SW 1573 has a relative viability of 0.401.
In the case of UMC-11, the relative viability is reported as 0.348.

Same assay, conditions: first compound 0.3162 µM
SK-MES-1 gave a relative viability of 0.25.
With SW 900 the relative viability was 0.538.
Work on SW 1573 yielded a relative viability of 0.392.
For UMC-11, the relative viability was 0.351.

The cell lines below were run with COc1nc(N)nc2c1ncn2[C@@H]1O[C@H](CO)[C@@H](O)[C@@H]1O [Nelarabine] + N=C(N)NC(=N)NCCc1ccccc1 [Phenformin] (partner 250 µM) in the same assay as above. Conditions: first compound 0.01 µM.
Procedure, shortened: as §1
SK-MES-1 showed a relative viability of 0.705.
For SW 900, the relative viability was 0.592.
SW 1573 was tested, and the relative viability was 0.548.
UMC-11 was tested, and the relative viability was 0.33.

Same assay, conditions: first compound 0.03162 µM
In the case of SK-MES-1, the relative viability is reported as 0.658.
SW 900 was tested, and the relative viability was 0.583.
In the case of SW 1573, the relative viability is reported as 0.422.
With UMC-11 the relative viability was 0.325.

Same assay, conditions: first compound 0.1 µM
For SK-MES-1, the relative viability was 0.643.
In the case of SW 900, the relative viability is reported as 0.546.
SW 1573 was tested, and the relative viability was 0.406.
For UMC-11, the relative viability was 0.347.

Same assay, conditions: first compound 0.3162 µM
SK-MES-1 gave a relative viability of 0.757.
Cell Line SW 900 has a relative viability of 0.784.
Cell Line SW 1573 has a relative viability of 0.356.
Cell Line UMC-11 has a relative viability of 0.294.

Same assay, conditions: first compound 1 µM
SK-MES-1 gave a relative viability of 0.684.
SW 900 was tested, and the relative viability was 0.635.
SW 1573 gave a relative viability of 0.389.
UMC-11 was tested, and the relative viability was 0.31.
